The values below come from ChEMBL document CHEMBL1139115, “Thyroid receptor ligands. Part 7: Indirect antagonists of the thyroid hormone receptor with improved affinity” (Bioorg Med Chem Lett, 2007).

Assay [1] deals with T1, Thyroid hormone receptor alpha (Homo sapiens) (UniProt P10827).
T1 sequence (whole entry): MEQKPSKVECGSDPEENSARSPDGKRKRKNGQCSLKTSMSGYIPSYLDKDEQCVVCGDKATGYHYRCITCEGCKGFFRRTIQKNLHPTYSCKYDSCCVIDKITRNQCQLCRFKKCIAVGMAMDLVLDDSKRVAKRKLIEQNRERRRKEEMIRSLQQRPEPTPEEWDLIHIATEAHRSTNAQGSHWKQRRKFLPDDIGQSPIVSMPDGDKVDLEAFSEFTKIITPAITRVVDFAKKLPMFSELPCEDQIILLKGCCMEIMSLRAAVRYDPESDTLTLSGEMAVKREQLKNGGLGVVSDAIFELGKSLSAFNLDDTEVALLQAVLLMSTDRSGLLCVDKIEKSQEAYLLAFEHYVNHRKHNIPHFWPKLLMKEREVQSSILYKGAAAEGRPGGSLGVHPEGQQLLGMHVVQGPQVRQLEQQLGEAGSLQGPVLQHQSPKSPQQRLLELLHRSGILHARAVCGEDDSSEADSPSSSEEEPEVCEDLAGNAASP
Briefly: (§1) Antagonist activity at human TR-alpha-1 expressed in CHO cells assessed as TRAF-alpha-1-driven gene transactivation by alkaline phosphatase reporter gene assay. Type of assay: functional, cell-based. Details: scale not given: the % may be the effect or the level left. A general note: Reporter assays use an easily measured gene product as a stand-in for the process of interest.

The target of assay [2] is T2, Thyroid hormone receptor alpha (Homo sapiens, UniProt P10827).
T2 sequence (P10827 whole entry): T1 sequence (whole entry)
The assay is described as §1. The assay is classed as functional, cell-based.

pIC50: −log10 of the molar value.

As a reminder, the pIC50 is the negative decadic logarithm of the IC50, by convention in mol/L. As for `O=C(O)CCc1cc(Br)c(OCc2cccc(Br)c2)c(Br)c1`, in assay [1], the Activity is 80%. Further, the negative logarithm of the IC50 (pIC50) in assay [2] is 6.42.
